# In patent publication US10633382B2, “Imidazopyrazinones, pyrazolopyrimidinones and pyrazolopyridinones as PDE1 inhibitors” (H. Lundbeck A/S, priority 2016, dated 2020):
# How the values were obtained:
# Type in all cases: biochemical
# PDE1A = PDE1A (Homo sapiens, UniProt P54750); assay: PDE1 inhibition assay (PDE1A); details: 15 nM tritium labelled cAMP, SPA
# Experimental: (§1) PDE1A, PDE1B and PDE1C assays were performed as follows: the assays were performed in 60 μL samples containing a fixed amount of the PDE1 enzyme (sufficient to convert 20-25% of the cyclic nucleotide substrate), a buffer (50 mM HEPES (4-(2-hydroxyethyl)-1-piperazineethanesulfonic acid) pH 7.6; 10 mM MgCl2; 0.02% Tween20), 0.1 mg/ml BSA (bovine serum albumin), 15 nM tritium labelled cAMP and varying amounts of inhibitors. Reactions were initiated by addition of the cyclic nucleotide substrate, and reactions were allowed to proceed for 1 hr at room temperature before being terminated through mixing with 20 μL (0.2 mg) yttrium silicate SPA beads (PerkinElmer). The beads were allowed to settle for 1 hour in the dark before the plates were counted in a Wallac 1450 Microbeta counter. The measured signals were converted to activity relative to an uninhibited control (100%) and IC50 values were calculated using XlFit (model 205, IDBS).
# PDE1C = PDE1C (Homo sapiens, UniProt Q14123); assay: PDE1 inhibition assay (PDE1C); details: 15 nM tritium labelled cAMP, SPA
# Experimental: as §1
# PDE9 = PDE9 (Homo sapiens, UniProt O76083); assay: PDE9 inhibition assay; details: for inhibition at 10 µM / PDE9 Inhibition at 10 μM (%): 10 μM of inhibitor
# Experimental: A PDE9 assay may for example, be performed as follows: The assay is performed in 60 μL samples containing a fixed amount of the relevant PDE enzyme (sufficient to convert 20-25% of the cyclic nucleotide substrate), a buffer (50 mM HEPES pH 7.6; 10 mM MgCl2; 0.02% Tween20), 0.1 mg/ml BSA, 225 pCi of ^3H-labelled cyclic nucleotide substrate, tritium labeled cAMP to a final concentration of 5 nM and varying amounts of inhibitors. Reactions are initiated by addition of the cyclic nucleotide substrate, and reactions are allowed to proceed for one hr at room temperature before being terminated through mixing with 15 μL 8 mg/mL yttrium silicate SPA beads (Amersham). The beads are allowed to settle for one hr in the dark before the plates are counted in a Wallac 1450 Microbeta counter. The measured signal can be converted to activity relative to an uninhibited control (100%) and IC50 values can be calculated using the Xlfit extension to EXCEL.
# In the context of the present invention the assay was performed in 60 μL assay buffer (50 mM HEPES pH 7.6; 10 mM MgCl2; 0.02% Tween20) containing enough PDE9 to convert 20-25% of 10 nM ^3H-cAMP, and […] 10 μM of inhibitor. Following 1 hr incubation the reactions were terminated by addition of 15 μL 8 mg/mL yttrium silicate SPA beads (Amersham). The beads were allowed to settle for one hr in the dark before the plates were counted in a Wallac 1450 Microbeta counter.
# PDE1B = PDE1B (Homo sapiens, UniProt Q01064); assay: PDE1 inhibition assay (PDE1B); details: 15 nM tritium labelled cAMP, SPA
# Experimental: as §1
# Chain of PDE1C (Q14123 whole entry): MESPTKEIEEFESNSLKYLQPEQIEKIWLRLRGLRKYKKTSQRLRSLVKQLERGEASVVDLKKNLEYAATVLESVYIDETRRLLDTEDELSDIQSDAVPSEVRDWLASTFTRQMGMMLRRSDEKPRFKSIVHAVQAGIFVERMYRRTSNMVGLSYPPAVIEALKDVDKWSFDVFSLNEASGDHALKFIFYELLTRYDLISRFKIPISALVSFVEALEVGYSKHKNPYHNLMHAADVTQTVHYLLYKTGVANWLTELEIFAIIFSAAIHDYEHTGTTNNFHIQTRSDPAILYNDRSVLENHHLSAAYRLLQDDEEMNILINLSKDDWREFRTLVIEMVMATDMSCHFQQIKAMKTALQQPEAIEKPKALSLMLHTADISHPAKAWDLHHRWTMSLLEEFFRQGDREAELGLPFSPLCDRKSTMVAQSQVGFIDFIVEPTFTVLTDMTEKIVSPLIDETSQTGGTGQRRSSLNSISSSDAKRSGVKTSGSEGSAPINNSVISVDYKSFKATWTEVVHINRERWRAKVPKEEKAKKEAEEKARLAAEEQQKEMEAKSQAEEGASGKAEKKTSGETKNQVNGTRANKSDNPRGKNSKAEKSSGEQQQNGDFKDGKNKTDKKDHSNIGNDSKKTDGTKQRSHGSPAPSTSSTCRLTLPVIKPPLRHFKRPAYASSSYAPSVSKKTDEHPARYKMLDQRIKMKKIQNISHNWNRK
# Chain of PDE1A (P54750 whole entry): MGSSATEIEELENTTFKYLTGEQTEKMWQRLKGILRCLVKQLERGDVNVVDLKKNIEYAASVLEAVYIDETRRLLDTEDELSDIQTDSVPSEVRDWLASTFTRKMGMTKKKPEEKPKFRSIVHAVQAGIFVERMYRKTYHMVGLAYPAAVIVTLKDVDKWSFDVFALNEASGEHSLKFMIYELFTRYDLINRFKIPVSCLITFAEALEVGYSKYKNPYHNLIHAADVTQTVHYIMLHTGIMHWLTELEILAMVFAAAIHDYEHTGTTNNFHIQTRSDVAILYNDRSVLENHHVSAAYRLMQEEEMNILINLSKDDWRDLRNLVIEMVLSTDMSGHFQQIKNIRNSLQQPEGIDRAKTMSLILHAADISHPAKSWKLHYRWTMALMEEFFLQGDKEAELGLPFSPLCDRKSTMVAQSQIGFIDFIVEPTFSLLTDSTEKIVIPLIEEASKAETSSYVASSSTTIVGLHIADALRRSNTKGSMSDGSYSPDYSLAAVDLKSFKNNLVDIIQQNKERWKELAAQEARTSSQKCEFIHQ
# Chain of PDE1B (Q01064 whole entry): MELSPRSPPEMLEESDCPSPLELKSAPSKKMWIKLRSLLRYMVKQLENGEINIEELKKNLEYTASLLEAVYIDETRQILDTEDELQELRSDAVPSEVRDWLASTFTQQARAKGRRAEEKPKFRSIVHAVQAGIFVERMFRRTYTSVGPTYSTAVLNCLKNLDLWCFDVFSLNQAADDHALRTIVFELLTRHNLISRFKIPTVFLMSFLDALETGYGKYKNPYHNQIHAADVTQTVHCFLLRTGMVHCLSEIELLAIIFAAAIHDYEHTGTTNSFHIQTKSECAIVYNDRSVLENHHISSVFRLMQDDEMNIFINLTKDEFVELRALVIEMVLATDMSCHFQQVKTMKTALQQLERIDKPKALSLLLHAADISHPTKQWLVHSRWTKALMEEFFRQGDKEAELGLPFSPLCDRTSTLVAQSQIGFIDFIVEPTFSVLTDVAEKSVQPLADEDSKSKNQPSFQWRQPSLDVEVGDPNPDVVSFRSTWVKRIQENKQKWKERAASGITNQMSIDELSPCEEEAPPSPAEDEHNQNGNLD
# Chain of PDE9 (O76083 whole entry): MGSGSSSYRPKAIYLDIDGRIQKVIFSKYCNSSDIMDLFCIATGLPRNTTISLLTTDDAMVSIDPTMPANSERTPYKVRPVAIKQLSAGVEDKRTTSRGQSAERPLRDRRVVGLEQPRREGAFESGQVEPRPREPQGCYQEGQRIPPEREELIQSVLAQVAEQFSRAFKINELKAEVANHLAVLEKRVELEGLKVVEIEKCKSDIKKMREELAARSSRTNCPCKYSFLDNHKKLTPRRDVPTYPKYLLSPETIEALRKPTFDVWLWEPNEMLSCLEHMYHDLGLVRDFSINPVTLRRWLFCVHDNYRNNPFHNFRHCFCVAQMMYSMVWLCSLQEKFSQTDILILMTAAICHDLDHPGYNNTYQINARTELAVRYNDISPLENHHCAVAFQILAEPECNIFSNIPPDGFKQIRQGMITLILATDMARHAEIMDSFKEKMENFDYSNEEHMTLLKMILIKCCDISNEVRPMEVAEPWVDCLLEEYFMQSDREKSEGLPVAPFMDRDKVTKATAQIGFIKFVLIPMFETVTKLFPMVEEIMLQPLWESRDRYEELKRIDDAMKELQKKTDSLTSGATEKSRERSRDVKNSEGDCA
SMILES,IC50 (PDE1A) [nM],IC50 (PDE1C) [nM],inhibition at 10 µM (PDE9) [%],IC50 (PDE1B) [nM],PDE9 Inhibition at 10 μM (%) (PDE9),IC50 (PDE9; printed in the PDE9 inhibition column) [nM]
"Cc1cccc(-c2ccc(Cc3cc4c(cnn4C4CCOCC4)c(=O)n3C)cc2)n1 [Example 1, 5-methyl-6-[[4-(6-methyl-2-pyridyl)phenyl]methyl]-1-tetrahydropyran-4-yl-pyrazolo[4,3-c]pyridin-4-one]",150,220,10,32,,
"Cn1c(Cc2ccc(-c3ccccn3)cc2)nc2c(cnn2C2CCOCC2)c1=O [Example 2, 5-methyl-6-[[4-(2-pyridyl)phenyl]methyl]-1-tetrahydropyran-4-yl-pyrazolo[3,4-d]pyrimidin-4-one]",390,530,5,92,,
"Cc1cccc(-c2ccc(Cc3nc4c(cnn4C4CCOCC4)c(=O)n3C)cc2)n1 [Example 3, 5-methyl-6-[[4-(6-methyl-2-pyridyl)phenyl]methyl]-1-tetrahydropyran-4-yl-pyrazolo[3,4-d]pyrimidin-4-one]",350,660,25,93,,
"Cn1c(Cc2ccc(-c3cccc(F)n3)cc2)nc2c(cnn2C2CCOCC2)c1=O [Example 4, 6-[[4-(6-fluoro-2-pyridyl)phenyl]methyl]-5-methyl-1-tetrahydropyran-4-yl-pyrazolo[3,4-d]pyrimidin-4-one]",180,2100,17,57,,
"Cn1c(Cc2ccc(-c3ccccn3)cc2)cc2c(cnn2C2CCOCC2)c1=O [Example 6, 5-methyl-6-[[4-(2-pyridyl)phenyl]methyl]-1-tetrahydropyran-4-yl-pyrazolo[4,3-c]pyridin-4-one]",160,240,4,25,,
"COc1ccc(Cn2c(CN3CCN(c4ccccn4)CC3)cn3c(C4CCOCC4)ncc3c2=O)cc1 [Example 7, 7-[(4-methoxyphenyl)methyl]-6-[[4-(2-pyridyl)piperazin-1-yl]methyl]-3-tetrahydropyran-4-yl-imidazo[1,5-a]pyrazin-8-one]",88,190,19,13,,
"COc1ccc(Cn2c(CN3CCN(c4ccccc4)CC3)cn3c(C4CCOCC4)ncc3c2=O)cc1 [Example 8, 7-[(4-methoxyphenyl)methyl]-6-[(4-phenylpiperazin-1-yl)methyl]-3-tetrahydropyran-4-yl-imidazo[1,5-a]pyrazin-8-one]",59,140,11,9.8,,
"COc1ccc(Cn2c(Cc3ccc(-c4ccccn4)cc3)cn3c(C4CCOCC4)ncc3c2=O)cc1 [Example 9, 7-[(4-methoxyphenyl)methyl]-6-[[4-(2-pyridyl)phenyl]methyl]-3-tetrahydropyran-4-yl-imidazo[1,5-a]pyrazin-8-one]",0.29,0.38,39,0.19,,
"O=c1[nH]c(Cc2ccc(-c3ccccn3)cc2)cn2c(C3CCOCC3)ncc12 [Example 10, 6-[[4-(2-pyridyl)phenyl]methyl]-3-tetrahydropyran-4-yl-7H-imidazo[1,5-a]pyrazin-8-one]",17,22,,6,,180
"CCn1c(Cc2ccc(-c3ccccn3)cc2)cn2c(C3CCOCC3)ncc2c1=O [Example 12, 7-ethyl-6-[[4-(2-pyridyl)phenyl]methyl]-3-tetrahydropyran-4-yl-imidazo[1,5-a]pyrazin-8-one]",12,26,4,3.1,,

# Other lines, results leading:
IC50 (PDE1A) [nM],IC50 (PDE1C) [nM],inhibition at 10 µM (PDE9) [%],IC50 (PDE1B) [nM],PDE9 Inhibition at 10 μM (%) (PDE9),IC50 (PDE9; printed in the PDE9 inhibition column) [nM],SMILES
57,96,4,16,,,"Cn1c(Cc2ccc(-c3cccc(F)n3)cc2)cn2c(C3CCOC3)ncc2c1=O (single isomer, unassigned; isomer 1) [Example 27, 6-(4-(6-fluoropyridin-2-yl)benzyl)-7-methyl-3-(tetrahydrofuran-3-yl)imidazo[1,5-a]pyrazin-8(7H)-one, Isomer 1]"
61,104,,24,4,,"CC1OCCC1c1ncc2c(=O)n(C)c(Cc3ccc(-c4cccc(F)n4)cc3)cn12 (single isomer, unassigned; isomer 1) [Example 29, 6-(4-(6-fluoropyridin-2-yl)benzyl)-7-methyl-3-(2-methyltetrahydrofuran-3-yl)imidazo[1,5-a]pyrazin-8(7H)-one, Isomer 1]"
71,111,,26,6,,"Cn1c(Cc2ccc(-c3cccc(F)n3)cc2)cn2c(C3CCOC3)ncc2c1=O (single isomer, unassigned; isomer 2) [Example 28, 6-(4-(6-fluoropyridin-2-yl)benzyl)-7-methyl-3-(tetrahydrofuran-3-yl)imidazo[1,5-a]pyrazin-8(7H)-one, Isomer 2]"
70,148,,71,−2,,"CC1OCCC1c1ncc2c(=O)n(C)c(Cc3ccc(-c4cccc(F)n4)cc3)cn12 (single isomer, unassigned; isomer 2) [Example 30, 6-(4-(6-fluoropyridin-2-yl)benzyl)-7-methyl-3-(2-methyltetrahydrofuran-3-yl)imidazo[1,5-a]pyrazin-8(7H)-one, Isomer 2]"
18,45,,4,10,,"CC1OCCC1c1ncc2c(=O)n(C)c(Cc3ccc(-c4cccc(F)n4)cc3)cn12 (single isomer, unassigned; isomer 3) [Example 31, 6-(4-(6-fluoropyridin-2-yl)benzyl)-7-methyl-3-(2-methyltetrahydrofuran-3-yl)imidazo[1,5-a]pyrazin-8(7H)-one, Isomer 3]"
5.8,9.2,,1.3,5,,"CC1OCCC1c1ncc2c(=O)n(C)c(Cc3ccc(-c4cccc(F)n4)cc3)cn12 (single isomer, unassigned; isomer 4) [Example 32, 6-(4-(6-fluoropyridin-2-yl)benzyl)-7-methyl-3-(2-methyltetrahydrofuran-3-yl)imidazo[1,5-a]pyrazin-8(7H)-one, Isomer 4]"
120,190,3,20,,,"Cn1c(Cc2ccc(-c3cccc(F)n3)cc2)cc2c(cnn2C2CCOCC2)c1=O [Example 5, 6-[[4-(6-fluoro-2-pyridyl)phenyl]methyl]-5-methyl-1-tetrahydropyran-4-yl-pyrazolo[4,3-c]pyridin-4-one]"
30,120,-10,3.5,,,"Cn1c(Cc2ccc(-c3ccccn3)cc2)cn2c(C3CCOCC3)ncc2c1=O [Example 11, 7-methyl-6-[[4-(2-pyridyl)phenyl]methyl]-3-tetrahydropyran-4-yl-imidazo[1,5-a]pyrazin-8-one]"
81,80,18,14,,,"Cc1cccc(-c2ccc(Cc3cn4c(C5CCOCC5)ncc4c(=O)n3C)cc2)n1 [Example 13, 7-methyl-6-[[4-(6-methyl-2-pyridyl)phenyl]methyl]-3-tetrahydropyran-4-yl-imidazo[1,5-a]pyrazin-8-one]"
